Results: ChEMBL document CHEMBL1201862, “PubChem BioAssay data set” (2004)
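Briefly, cells in 96-well plates were exposed to five compound concentrations for 48 h, and endpoints were estimated by linear interpolation. The concentration for 50% growth inhibition is given as GI50.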 The source made the active and inactive calls. Rule as the data show it: active = GI50 up to about 1.1 µM and inactive = higher.

Assays:
Assay in all cases: NCI tumour cell line growth inhibition, 48 h
HT-29 = system: HT-29
Malme-3M = system: Malme-3M
COLO 205 = system: COLO 205
SF-295 = system: SF-295
SK-MEL-5 = system: SK-MEL-5
A549 = system: A549
HL-60 = system: HL-60
M19-MEL = system: M19-MEL
ACHN = system: ACHN
SK-MEL-2 = system: SK-MEL-2
OVCAR-5 = system: OVCAR-5
UACC-62 = system: UACC-62
SK-MEL-28 = system: SK-MEL-28
M14 = system: M14
DLD-1 = system: DLD-1
LXFL 529 = system: LXFL 529
HCC 2998 = system: HCC 2998
NCI-H23 = system: NCI-H23
OVCAR-3 = system: OVCAR-3
SF-268 = system: SF-268
SNB-19 = system: SNB-19
KM12 = system: KM12
OVCAR-4 = system: OVCAR-4
TK-10 = system: TK-10
KM-20L2 = system: KM-20L2
IGROV-1 = system: IGROV-1
SNB-75 = system: SNB-75
786-0 = system: 786-0
RXF 393 = system: RXF 393
NCI-H226 = system: NCI-H226
RPMI-8226 = system: RPMI-8226
SNB-78 = system: SNB-78
U-251 = system: U-251
HCT-116 = system: HCT-116
HOP-62 = system: HOP-62
UACC-257 = system: UACC-257
HOP-92 = system: HOP-92
MOLT-4 = system: MOLT-4
SW-620 = system: SW-620
EKVX = system: EKVX
LOX IMVI = system: LOX IMVI
CCRF-CEM = system: CCRF-CEM
SN12C = system: SN12C
OVCAR-8 = system: OVCAR-8
DMS-114 = system: DMS-114
UO-31 = system: UO-31
NCI-H460 = system: NCI-H460
XF498 = system: XF498
DMS-273 = system: DMS-273
HCT-15 = system: HCT-15
SK-OV-3 = system: SK-OV-3
NCI-H522 = system: NCI-H522
K562 = system: K562
CAKI-1 = system: CAKI-1
SF-539 = system: SF-539
A498 = system: A498
HOP-18 = system: HOP-18
SR = system: SR

Structure (SMILES): CCOc1ccc(NC(=O)CC2SC(N)=NC2=O)cc1 (stereo unspecified)
- GI50 (HT-29): > 100 µM (inactive)
- GI50 (Malme-3M): > 100 µM (inactive)
- GI50 (COLO 205): > 100 µM (inactive)
- GI50 (SF-295): > 100 µM (inactive)
- GI50 (SK-MEL-5): > 100 µM (inactive)
- GI50 (A549): > 100 µM (inactive)
- GI50 (HL-60): > 100 µM (inactive)
- GI50 (M19-MEL): > 100 µM (inactive)
- GI50 (ACHN): > 100 µM (inactive)
- GI50 (SK-MEL-2): > 100 µM (inactive)
- GI50 (OVCAR-5): > 100 µM (inactive)
- GI50 (UACC-62): > 100 µM (inactive)
- GI50 (SK-MEL-28): > 100 µM (inactive)
- GI50 (M14): > 100 µM (inactive)
- GI50 (DLD-1): > 100 µM (inactive)
- GI50 (LXFL 529): > 100 µM (inactive)
- GI50 (HCC 2998): > 100 µM (inactive)
- GI50 (NCI-H23): > 100 µM (inactive)
- GI50 (OVCAR-3): > 100 µM (inactive)
- GI50 (SF-268): > 100 µM (inactive)
- GI50 (SNB-19): > 100 µM (inactive)
- GI50 (KM12): > 100 µM (inactive)
- GI50 (OVCAR-4): > 100 µM (inactive)
- GI50 (TK-10): > 100 µM (inactive)
- GI50 (KM-20L2): > 100 µM (inactive)
- GI50 (IGROV-1): > 100 µM (inactive)
- GI50 (SNB-75): > 100 µM (inactive)
- GI50 (786-0): > 100 µM (inactive)
- GI50 (RXF 393): > 100 µM (inactive)
- GI50 (NCI-H226): > 100 µM (inactive)
- GI50 (RPMI-8226): > 100 µM (inactive)
- GI50 (SNB-78): > 100 µM (inactive)
- GI50 (U-251): > 100 µM (inactive)
- GI50 (HCT-116): > 100 µM (inactive)
- GI50 (HOP-62): > 100 µM (inactive)
- GI50 (UACC-257): > 100 µM (inactive)
- GI50 (HOP-92): 55.8 µM (inactive)
- GI50 (MOLT-4): > 100 µM (inactive)
- GI50 (SW-620): > 100 µM (inactive)
- GI50 (EKVX): > 100 µM (inactive)
- GI50 (LOX IMVI): > 100 µM (inactive)
- GI50 (CCRF-CEM): > 100 µM (inactive)
- GI50 (SN12C): > 100 µM (inactive)
- GI50 (OVCAR-8): > 100 µM (inactive)
- GI50 (DMS-114): > 100 µM (inactive)
- GI50 (UO-31): > 100 µM (inactive)
- GI50 (NCI-H460): > 100 µM (inactive)
- GI50 (XF498): > 100 µM (inactive)

Structure (SMILES): O=C(Nc1ccccc1Cl)c1ccc([N+](=O)[O-])cc1
- GI50 (HT-29): > 100 µM (inactive)
- GI50 (Malme-3M): > 100 µM (inactive)
- GI50 (COLO 205): > 100 µM (inactive)
- GI50 (SF-295): 46.7 µM (inactive)
- GI50 (SK-MEL-5): > 100 µM (inactive)
- GI50 (A549): > 100 µM (inactive)
- GI50 (M19-MEL): > 100 µM (inactive)
- GI50 (SK-MEL-2): > 100 µM (inactive)
- GI50 (DMS-273): > 100 µM (inactive)
- GI50 (UACC-62): > 100 µM (inactive)
- GI50 (HCT-15): > 100 µM
- GI50 (SK-MEL-28): > 100 µM (inactive)
- GI50 (M14): > 100 µM (inactive)
- GI50 (SK-OV-3): > 100 µM (inactive)
- GI50 (DLD-1): > 100 µM (inactive)
- GI50 (HCC 2998): > 100 µM (inactive)
- GI50 (NCI-H522): > 100 µM (inactive)
- GI50 (NCI-H23): > 100 µM (inactive)
- GI50 (OVCAR-3): > 100 µM (inactive)
- GI50 (SF-268): > 100 µM (inactive)
- GI50 (SNB-19): 41.2 µM (inactive)
- GI50 (KM12): > 100 µM (inactive)
- GI50 (TK-10): > 100 µM (inactive)
- GI50 (KM-20L2): > 100 µM (inactive)
- GI50 (IGROV-1): > 100 µM (inactive)
- GI50 (SNB-75): 22.4 µM (inactive)
- GI50 (786-0): 45.7 µM (inactive)
- GI50 (RXF 393): 33.3 µM (inactive)
- GI50 (NCI-H226): > 100 µM (inactive)
- GI50 (K562): > 100 µM (inactive)
- GI50 (CAKI-1): > 100 µM (inactive)
- GI50 (RPMI-8226): > 100 µM (inactive)
- GI50 (SNB-78): 39.7 µM (inactive)
- GI50 (U-251): > 100 µM (inactive)
- GI50 (SF-539): 64.3 µM (inactive)
- GI50 (HOP-62): 47.4 µM (inactive)
- GI50 (UACC-257): > 100 µM (inactive)
- GI50 (MOLT-4): > 100 µM (inactive)
- GI50 (SW-620): > 100 µM (inactive)
- GI50 (A498): > 100 µM (inactive)
- GI50 (EKVX): 76.4 µM (inactive)
- GI50 (LOX IMVI): > 100 µM (inactive)
- GI50 (CCRF-CEM): > 100 µM (inactive)
- GI50 (SN12C): > 100 µM (inactive)
- GI50 (OVCAR-8): > 100 µM (inactive)
- GI50 (UO-31): > 100 µM (inactive)
- GI50 (NCI-H460): > 100 µM (inactive)
- GI50 (XF498): > 100 µM (inactive)

Structure (SMILES): CCNC(C)Cc1ccccc1 (stereo unspecified)
- GI50 (HT-29): > 100 µM (inactive)
- GI50 (Malme-3M): > 100 µM (inactive)
- GI50 (COLO 205): > 100 µM (inactive)
- GI50 (SF-295): > 100 µM (inactive)
- GI50 (SK-MEL-5): > 100 µM (inactive)
- GI50 (A549): > 100 µM (inactive)
- GI50 (HL-60): > 100 µM (inactive)
- GI50 (ACHN): > 100 µM (inactive)
- GI50 (SK-MEL-2): > 100 µM (inactive)
- GI50 (OVCAR-5): > 100 µM (inactive)
- GI50 (DMS-273): > 100 µM (inactive)
- GI50 (UACC-62): > 100 µM (inactive)
- GI50 (HCT-15): > 100 µM
- GI50 (SK-MEL-28): > 100 µM (inactive)
- GI50 (M14): > 100 µM (inactive)
- GI50 (SK-OV-3): > 100 µM (inactive)
- GI50 (DLD-1): > 100 µM (inactive)
- GI50 (LXFL 529): > 100 µM (inactive)
- GI50 (HCC 2998): > 100 µM (inactive)
- GI50 (NCI-H522): > 100 µM (inactive)
- GI50 (NCI-H23): > 100 µM (inactive)
- GI50 (HOP-18): > 100 µM (inactive)
- GI50 (OVCAR-3): > 100 µM (inactive)
- GI50 (SF-268): > 100 µM (inactive)
- GI50 (SNB-19): > 100 µM (inactive)
- GI50 (SR): > 100 µM (inactive)
- GI50 (KM12): > 100 µM (inactive)
- GI50 (OVCAR-4): > 100 µM (inactive)
- GI50 (TK-10): > 100 µM (inactive)
- GI50 (KM-20L2): > 100 µM (inactive)
- GI50 (IGROV-1): > 100 µM (inactive)
- GI50 (SNB-75): 6.71 µM (inactive)
- GI50 (786-0): > 100 µM (inactive)
- GI50 (RXF 393): > 100 µM (inactive)
- GI50 (NCI-H226): > 100 µM (inactive)
- GI50 (K562): > 100 µM (inactive)
- GI50 (CAKI-1): > 100 µM (inactive)
- GI50 (RPMI-8226): > 100 µM (inactive)
- GI50 (SNB-78): > 100 µM (inactive)
- GI50 (U-251): > 100 µM (inactive)
- GI50 (SF-539): > 100 µM (inactive)
- GI50 (HCT-116): > 100 µM (inactive)
- GI50 (HOP-62): > 100 µM (inactive)
- GI50 (UACC-257): > 100 µM (inactive)
- GI50 (HOP-92): > 100 µM (inactive)
- GI50 (SW-620): > 100 µM (inactive)
- GI50 (A498): > 100 µM (inactive)
- GI50 (EKVX): > 100 µM (inactive)
- GI50 (LOX IMVI): > 100 µM (inactive)
- GI50 (CCRF-CEM): > 100 µM (inactive)
- GI50 (SN12C): > 100 µM (inactive)
- GI50 (OVCAR-8): > 100 µM (inactive)
- GI50 (DMS-114): > 100 µM (inactive)
- GI50 (UO-31): > 100 µM (inactive)
- GI50 (NCI-H460): > 100 µM (inactive)
